Earlier results in patent EP4088714A1, “OPHTHALMIC PHARMACEUTICAL COMPOSITION COMPRISING ATROPINE” (Warszawskie Zaklady Farmaceutyczne Polfa S.A., priority 2021, dated 2022).

SMILES: CN1[C@@H]2CC[C@H]1C[C@@H](OC(=O)C(CO)c1ccccc1)C2 (some centres unmarked) [atropine, Atropine]
- need for photochromatic glasses (concentrations 0.01% to 0.05%, treated patients, two years of treatment): higher than 30%
- tolerability (concentrations ranging from 0.01% to 0.05%, 383 children, after two years of treatment): well tolerated
